Data from patent publication US20250213701A1, “MEDICAMENT FOR TREATING HUMAN TUMOR BASED ON ERF3A-TARGETING PROTEOLYSIS MECHANISM” (SUZHOU DEGEN BIO-MEDICAL CO., LTD., priority 2022, published 2025).

Assays:
Type in all cases: cell-based
SRD5A3 = molecular target: T1, SRD5A3 (Homo sapiens, UniProt Q9H8P0); assay: Western blot assay in 22Rv1 cells: SRD5A3; details: different concentrations at 24 h, and 3 nM at different time points (FIGS. 7 and 8)
T1 construct: The downregulation of SRD5A3 and GSPT1 (eRF3a) proteins in PC-3 and HepG2 cells by C59; endogenous in cells; host or cells: 22Rv1, PC-3, HepG2
T1 sequence (Q9H8P0 1-318): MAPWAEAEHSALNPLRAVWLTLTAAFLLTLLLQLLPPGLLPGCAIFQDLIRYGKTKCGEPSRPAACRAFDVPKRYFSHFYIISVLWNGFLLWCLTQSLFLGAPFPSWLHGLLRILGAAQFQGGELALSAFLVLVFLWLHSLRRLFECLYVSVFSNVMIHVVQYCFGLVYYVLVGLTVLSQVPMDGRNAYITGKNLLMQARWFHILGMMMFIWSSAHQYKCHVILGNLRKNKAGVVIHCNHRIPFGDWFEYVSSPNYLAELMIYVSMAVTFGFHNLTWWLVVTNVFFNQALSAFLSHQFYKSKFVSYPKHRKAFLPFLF
From the text: Example 84: Western Blot Assay of Compound C59 in 22Rv1, PC-3, and HepG2 Cells
(1) Materials: 22Rv1, PC-3, and HepG2 cell, anti-SRD5A1 antibody (ab167606), anti-SRD5A2 antibody (ab124877), anti-SRD5A3 antibody (PA5-107029), anti-androgen receptor (AR) antibody (CST, No. 5153), anti-GSPT1 antibody (Abcam, ab234433), anti-GADPH antibody (CST, No. 5174), anti-c-Myc antibody (CST, No. 8583), anti-α-tublin antibody (CST, No. 2125), anti-rabbit IgG, HRP-linked antibody (CST, No. 7074), electrophoresis device and membrane transfer device (LIUYI, BEIJING; DYCZ-24DN)
Cell seeding: 22Rv1 (Cell Bank of the Chinese Academy of Sciences, TCHu100), PC-3 (Cell Bank of the Chinese Academy of Sciences, SCSP-532) and HepG2 cells (Cell Bank of the Chinese Academy of Sciences, TCHu72) were subcultured and trypsinized to prepare 6×10^5 cells/mL suspensions, seeded on 6-well plates (3 mL/well), and cultured overnight in a cell incubator at 5% CO2 and 37° C. […]
Protein quantification: The protein was quantified using a BCA protein quantification kit. […]
Western immunoblot assay (or Western blot, WB): SDS-PAGE gel at a proper concentration was prepared according to the molecular weight of the target protein: for example, the concentration of the separation gel was 8% and the concentration of the stacking gel was 5%. The loading volume was adjusted according to the protein quantification results. […]

Ca Ski cells = assay: Anti-proliferative toxicity of C63 in tumor cell lines (CCK8): Ca Ski; details: Homo sapiens, 72 h, 3 days, read-out: Inhibition rate
Protocol: (§1) Example 83: Detection of Anti-Proliferative Toxicity of C63 in Some Tumor Cell Lines
Ca Ski cells (purchased from the Cell Bank of the Chinese Academy of Sciences, Cat. No. TCHu137) were subcultured in a culture medium (RPMI-1640 medium+1% penicillin-streptomycin dual-antibiotic solution+10% fetal bovine serum) in an incubator at 5% carbon dioxide and 37° C.
Ca Ski cells were seeded at 5000 cells/well (90 μL) on a 96-well plate and cultured for 24 h.
(§2) 10 mM compound stock solutions were prepared in DMSO.
(§3) The compound stock solution was diluted with DMSO to give DMSO solutions 1-9 at concentrations of 0 μM, 2500 μM, 500 μM, 100 μM, 20 μM, 4 μM, 0.8 μM, 0.16 μM, and 0.032 μM.
(§4) 2 μL of each of solutions 1-9 was added to 98 μL of the medium to give mixed solutions 11-19 of the compound and the medium.
(§5) 10 μL of each of solutions 11-19 was added to the above cell seed solution to give a total volume of 100 μL (90 μL+10 μL).
(§6) The concentrations of the compound in the wells were 0 μM, 5.0 μM, 1.0 μM, 0.2 μM, 0.04 μM, 0.008 μM, 0.0016 μM, 0.00032 μM, and 0.000064 μM. All concentrations were in triplicate.
(§7) After the above-treated cells were cultured for 3 days, 10 μL of the CCK8 solution (DOJINDO, Cat. No. PF725) was added to each well. The plate was incubated in an incubator at 37° C. for 1-4 h and then detected on a microplate reader for the reading at 450 nm.

BxPC-3 cells = assay: Anti-proliferative toxicity of C63 in tumor cell lines (CCK8): BxPC-3; details: Homo sapiens, 72 h, 3 days, read-out: Inhibition rate
Protocol: as §1
BxPC-3 cells (purchased from the Cell Bank of the Chinese Academy of Sciences, Cat. No. TCHu12) were subcultured in a culture medium (RPMI-1640 medium+1% penicillin-streptomycin dual-antibiotic solution+10% fetal bovine serum) in an incubator at 5% carbon dioxide and 37° C.
BxPC-3 cells were seeded at 3000 cells/well (90 μL) on a 96-well plate and cultured for 24 h.
as §2, §3, §4, §5, §6, §7

SMILES | downregulation of SRD5A3 protein (Western blot) (SRD5A3) | inhibition at 64 pM (Ca Ski cells; 0.000064 μM) | inhibition at 0.00032 µM (Ca Ski cells; 0.000320 μM) | inhibition at 0.0016 µM (Ca Ski cells; 0.001600 μM) | inhibition at 0.008 µM (Ca Ski cells; 0.008000 μM) | inhibition at 0.04 µM (Ca Ski cells; 0.040000 μM) | inhibition at 0.2 µM (Ca Ski cells; 0.200000 μM) | inhibition at 1 µM (Ca Ski cells; 1.000000 μM) | inhibition at 5 µM (Ca Ski cells; 5.000000 μM) | inhibition at 64 pM (BxPC-3 cells; 0.000064 μM) | inhibition at 0.00032 µM (BxPC-3 cells; 0.000320 μM) | inhibition at 0.0016 µM (BxPC-3 cells; 0.001600 μM) | inhibition at 0.008 µM (BxPC-3 cells; 0.008000 μM) | inhibition at 0.04 µM (BxPC-3 cells; 0.040000 μM) | inhibition at 0.2 µM (BxPC-3 cells; 0.200000 μM) | inhibition at 1 µM (BxPC-3 cells; 1.000000 μM) | inhibition at 5 µM (BxPC-3 cells; 5.000000 μM)
C[C@]12C=CC(=O)N[C@@H]1CC[C@@H]1[C@@H]2CC[C@]2(C)[C@@H](C(=O)Nc3cccc(N[C@@H]4CCC[C@@H](Nc5cccc6c5C(=O)N(C5CCC(=O)NC5=O)C6=O)C4)c3)CC[C@@H]12 (stereo partly drawn) [C59, N-(3-(N—(N-(4-(2-(3-(2,6-dioxopiperidine))-isoindole-1,3-dione))-1R,3R-cyclohexanediamine))phenyl)-3-oxo-4-aza-5α-androst-1-ene-17β-carboxamide] | downregulation |  |  |  |  |  |  |  |  |  |  |  |  |  |  |  | 
C[C@]12C=CC(=O)N[C@@H]1CC[C@@H]1[C@@H]2CC[C@]2(C)[C@@H](C(=O)Nc3cccc(N[C@@H]4CCC[C@@H](Nc5cccc6c5C(=O)N([C@H]5CCC(=O)NC5=O)C6=O)C4)c3)CC[C@@H]12 [C63, N-(3-(N—(N-(4-(2-(3S-(2,6-dioxopiperidine))-isoindole-1,3-dione))-1R,3R-cyclohexanediamine))phenyl)-3-oxo-4-aza-5α-androst-1-ene-17β-carboxamide] |  | 2.03% | 6.27% | 42.9% | 65.4% | 73.9% | 78% | 77.8% | 78.1% | 3.64% | 22.6% | 56.5% | 68.2% | 71.6% | 72.9% | 76.5% | 80.2%
